Measurements taken from patent US20240172750A1, “5-Fluoro-4-Imino-3-Methyl-1-Tosyl-3,4-Dihydropyrimidin-2(1H)-One for Controlling Plant Diseases” (Adama Makhteshim Ltd., priority 2021, published 2024).

Tests used:
Bobwhite quail = assay: Ecotoxicity: birds, reproduction; assay type: in vivo
Excerpt: (§1) The ecotoxicity of flumetylsulforim was investigated in numerous studies in accordance with the strict requirements for the approval of active substances in the EU.

Predatory mite = assay: Ecotoxicity: non-target arthropods, reproduction; assay type: in vivo; conditions: wheats and barley at 2 × 100 g/ha
Excerpt: as §1

Parasitoid wasp = assay: Ecotoxicity: non-target arthropods, reproduction; assay type: in vivo
Excerpt: as §1

Ecotoxicity: fish, acute = conditions: in vivo, Rainbow trout
Excerpt: as §1

[1] = tested on: Erysiphe betae (powdery mildew); assay: Greenhouse screening test, powdery mildew in sugar beet; assay type: in vivo; conditions: starting from 100 g ai/ha, applied one day after inoculation
Procedure: The screening test was conducted in a greenhouse in Gerichshain, Kupferstraße 6, Germany. The test was performed from application until 28 days after treatment. The efficacy and phytotoxic symptoms of compound of formula I to the plant species sugar beet were examined with a water control under greenhouse conditions. During the whole trial period the plants were stored at 12.6° C.-24.2° C. and 41.9-78.2% relative humidity.
The inoculation of the leaves was carried out. A spore suspension was produced. Infested leaves of sugar beets from a field were put in water for some minutes to get a spore suspension. For better homogeneity Tween 20 (Polysorbat) was added to the spore solution (0.1%). Two diseases were observed on the sampled leaves, Uromyces betae and Erysiphe betae, just E. betae infested the plants in this screening trial. […]
The application was carried out once one day after inoculation in an automatic application cabin at a spray volume equivalent to 200 L/ha. During the observation period of 28 days after treatment (DAT), the plants were assessed weekly for growth stage, leaf diseases and phytotoxicity. […]

[2] = tested on: Pseudoperonospora cubensis (downy mildew); assay: Glasshouse trial, downy mildew in cucumber, foliar treatment; assay type: in vivo; conditions: cucumber (Bosco); 250 OD at 100, 125, 150, 200 g ai/ha, 3 applications; 21 DA-C
Procedure: The trial was carried out in a commercial glasshouse in Vittoria (RG)—Sicily region (Southern Italy) to evaluate the efficacy against Pseudoperonospora cubensis (downy mildew) and the selectivity on cucumber (Bosco variety) of ADF-16 250 OD at 100, 125, 150 and 200 g ai/ha in comparison to AIRONE PIU at 630 g ai/ha and EQUATION PRO at 21 g ai/ha.
Each plot (2 m×5 m, 2 rows per plot) consisted of at least 10 plants and 4 replicates per treatment were carried out. The soil used for the trial was a mix of peat and perlite. 3 applications were carried out as follows: A: early curative (disease symptoms lower than 5%), B: 7-10 days from A and C: 7-10 days from B. The corresponding treatments dates were: 16 Nov. 2020 (BBCH 64), 23 Nov. 2020 (BBCH 65) and 30th of November (BBCH 67)
The application was carried out with a backpack sprayer OleomacSP126 and a water volume of 1000 L/ha.
Phytotoxicity, if any, was assessed 7, 14 and 21 days form each application and starting from the first symptoms the percentage of affected leaf area (% severity) as well as the percentage of affected leaves (% incidence) was measured.

[3] = tested on: Colletotrichum dematium var. truncatum; assay: Pot trial, Colletotrichum dematium var. truncatum on soybean; assay type: in vivo; conditions: 50-200 g ai/ha
Procedure: (§2) The inoculation of Corynespora cassiicola and Colletotrichum dematium var. truncatum is done with infected leaves from the field few days after the application.
(§3) To test for fungicidal control against the two necrotrophic diseases, the soybean plants, grown in pots, are sprayed at V2 with each of the above treatments. 5 pots with 3 soybean plants each are considered, each treatment counts for 4 replicates.
(§4) Between 14 and 21 days from the inoculation the severity (%) of the infection is assessed.

Daphnia magna = assay: Ecotoxicity: aquatic invertebrates, long-term; assay type: in vivo
Excerpt: as §1

Soybean = assay: Non-target terrestrial plants, seedling emergence; assay type: in vivo
Excerpt: as §1

Oil seed rape = assay: Non-target terrestrial plants, seedling emergence; assay type: in vivo
Excerpt: as §1

Carrot = assay: Non-target terrestrial plants, seedling emergence; assay type: in vivo
Excerpt: as §1

Cucumber = assay: Non-target terrestrial plants, seedling emergence; assay type: in vivo
Excerpt: as §1

Common oat = assay: Non-target terrestrial plants, seedling emergence; assay type: in vivo
Excerpt: as §1

Maize = assay: Non-target terrestrial plants, seedling emergence; assay type: in vivo
Excerpt: as §1

Sugar beet = assay: Non-target terrestrial plants, seedling emergence; assay type: in vivo
Excerpt: as §1

Ryegrass = assay: Non-target terrestrial plants, seedling emergence; assay type: in vivo
Excerpt: as §1

Sunflower = assay: Non-target terrestrial plants, seedling emergence; assay type: in vivo
Excerpt: as §1

Onion = assay: Non-target terrestrial plants, seedling emergence; assay type: in vivo
Excerpt: as §1

[4] = wheats and barley at 2 × 100 g/ha

Procedure for Corynespora cassiicola: as §2, §3, §4

Cc1ccc(S(=O)(=O)n2cc(F)c(=N)n(C)c2=O)cc1 [compound of formula I, 5-fluoro-4-imino-3-methyl-1-tosyl-3,4-dihydropyrimidin-2(1H)-one]
NOED (Bobwhite quail): NOED > 67.8 mg/kg bw/d | Risk at current use pattern (Bobwhite quail; [4]): Acceptable | Risk at current use pattern (Predatory mite): Acceptable | LR50 (Parasitoid wasp): LR50 > 189 g/ha | Risk at current use pattern (Parasitoid wasp; [4]): Acceptable | LC50 (Ecotoxicity: fish, acute): 5.41 µg/mL | reduction of the affected leaf area compared to the UTC [1]: > 60% | control of the disease (downy mildew) [2]: significant control of the disease | control of Colletotrichum dematium var. truncatum [3]: effectively controls | NOEC (Daphnia magna): NOEC = 0.32 mg/L | Risk at current use pattern (Daphnia magna; [4]): Acceptable | ER50 (Soybean): ER50 > 189 g/ha | Risk at current use pattern (Soybean; [4]): Acceptable | ER50 (Oil seed rape): ER50 > 189 g/ha | Risk at current use pattern (Oil seed rape; [4]): Acceptable | ER50 (Carrot): ER50 > 189 g/ha | Risk at current use pattern (Carrot; [4]): Acceptable | ER50 (Cucumber): ER50 > 189 g/ha | Risk at current use pattern (Cucumber; [4]): Acceptable | ER50 (Common oat): ER50 > 189 g/ha | Risk at current use pattern (Common oat; [4]): Acceptable | ER50 (Maize): ER50 > 189 g/ha | Risk at current use pattern (Maize; [4]): Acceptable | ER50 (Sugar beet): ER50 > 189 g/ha | Risk at current use pattern (Sugar beet; [4]): Acceptable | ER50 (Ryegrass): ER50 > 189 g/ha | Risk at current use pattern (Ryegrass; [4]): Acceptable | ER50 (Sunflower): ER50 > 189 g/ha | Risk at current use pattern (Sunflower; [4]): Acceptable | ER50 (Onion): ER50 > 189 g/ha | Risk at current use pattern (Onion; [4]): Acceptable | phytotoxicity (Corynespora cassiicola; in vivo): no significant phytotoxicity | control of Corynespora cassiicola (Corynespora cassiicola; soybean, 50-200 g ai/ha): effectively controls
